The target of assay [1] is T1, glucocorticoid receptor (rbGR) (Oryctolagus cuniculus, UniProt P59667).
T1 construct: cytosol containing PR or GR were prepared in TEGMD buffer; from tissue; host or cells: thymus of estradiol-primed immature rabbits (cytosol)
T1 sequence (P59667 1-772): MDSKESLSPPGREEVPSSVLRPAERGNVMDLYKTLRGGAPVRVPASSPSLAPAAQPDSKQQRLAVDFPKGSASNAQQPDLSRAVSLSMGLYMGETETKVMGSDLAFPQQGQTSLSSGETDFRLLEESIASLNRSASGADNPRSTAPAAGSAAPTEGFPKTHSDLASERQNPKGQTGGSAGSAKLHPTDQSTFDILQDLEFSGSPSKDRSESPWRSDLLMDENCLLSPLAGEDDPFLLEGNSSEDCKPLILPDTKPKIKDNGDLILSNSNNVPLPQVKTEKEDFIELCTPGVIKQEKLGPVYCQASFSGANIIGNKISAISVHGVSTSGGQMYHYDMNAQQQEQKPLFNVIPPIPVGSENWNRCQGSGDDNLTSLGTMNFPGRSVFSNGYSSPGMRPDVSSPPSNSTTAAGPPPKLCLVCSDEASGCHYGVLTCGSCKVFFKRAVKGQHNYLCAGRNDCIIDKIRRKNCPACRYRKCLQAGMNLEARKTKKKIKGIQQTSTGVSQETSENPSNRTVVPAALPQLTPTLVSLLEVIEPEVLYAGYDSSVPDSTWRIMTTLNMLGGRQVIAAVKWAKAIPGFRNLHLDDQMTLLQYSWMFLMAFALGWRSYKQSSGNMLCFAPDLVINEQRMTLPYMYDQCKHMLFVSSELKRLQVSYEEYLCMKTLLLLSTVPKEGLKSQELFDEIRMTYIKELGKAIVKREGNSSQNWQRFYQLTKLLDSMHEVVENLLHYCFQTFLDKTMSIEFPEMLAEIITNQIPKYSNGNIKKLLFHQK
As to the kind of experiment: Glucocorticoid receptor binding. Further details: species or system rabbit. As to the method:
Certain antiprogestins were tested in receptor-binding assays for their ability to bind rabbit progesterone receptor (rbPR) and glucocorticoid receptor (rbGR). […] For PR binding, the cytosol was incubated with 6 nM 1,2-[^3H]progesterone (50.0 Ci/mmole) and competitors were added at concentrations from 2 to 100 nM. For binding to GR, the cytosol was incubated with 6 nM 6,7-[^3H]-dexamethasone (40 Ci/mmol) and test compounds were added at concentrations from 20 to 100 nM. After overnight incubation at 4° C., bound and unbound [^3H] steroids were separated by addition of dextran-coated charcoal and centrifugation at 2100×g for 15 min at 4
C. Supernatants containing the [3H]-steroid receptor complexes were decanted into vials containing 4 ml Optifluor (Packard Instrument Co.), vortexed, equilibrated in a liquid scintillation counter for 30 minutes and then counted for 2 minutes. […] The standards for the PR and GR assays were unlabeled progesterone and dexamethasone, respectively.

For a further assay, the system named is rabbit uterus. As to the kind of experiment: Anti-McGinty and anti-Clauberg assays. Format: in vivo. To be noted: average of anti-McGinty and anti-Clauberg results relative to CDB-2914 = 1.00. An excerpt:
Also given in the Table are the relative biological activities of the same compounds in the rabbit uterus by the anti-McGinty and anti-Clauberg assays. Compound CDB-2914 (listed at the end of the Table) was used as the control or reference compound (rabbit Biological Activity=1.00) for these experiments because results of experiments using CDB-2914 have been published before (Hild-Petito et al., 1996; Passaro et al., 1997; Reel et al., 1998; Lamer et al., 2000). For the anti-McGinty test, immature female rabbits received a subcutaneous injection of 5 μg estradiol in 10% ethanol/sesame oil daily for 6 consecutive days. On day 7, animals underwent sterile abdominal surgery to ligate a 3-4 cm segment of both uterine horns. The test compound in appropriate solvent was injected intraluminally into the ligated segment of one uterine horn and vehicle alone into the other. A stimulating dose of progesterone (267 μg/day) was administered subcutaneously to each rabbit daily for the next three days to induce endometrial proliferation. All animals were sacrificed at day 10 for removal of the uterus where a segment central to the ligatures was removed and fixed in 10% neutral buffered formalin and submitted for histological processing. Five micron sections stained with hematoxylin and cosin were evaluated microscopically for the degree of endometrial glandular proliferation. The percent inhibition of endometrial proliferation for each rabbit was calculated and the mean of the group of five animals recorded. For the Anti-Clauberg test, immature female rabbits received a subcutaneous injection of 5 μg estradiol in 10% ethanol/sesame oil daily for 6 consecutive days. On day 7, animals received progesterone by subcutaneous injection (160 μg/day) and the experimental compound in appropriate vehicle orally or subcutaneously for five consecutive days. One group of rabbits received progesterone only. Twenty-four hours after the last dose, all animals were sacrificed for removal of the uterus which was cleaned of all fat and connective tissue, weighed to the nearest 0.2 mg and placed in 10% neutral buffered formalin for subsequent histological processing. Five micron sections stained with hematoxylin and eosin were evaluated microscopically for the degree of endometrial glandular proliferation. The percent inhibition of endometrial proliferation at each dose level of the test compound was derived by comparison with progesterone-stimulated animals alone. The data presented in Table 1 (rabbit Biol. Act.) reflects the average of the results obtained for each compound by the anti-McGinty and anti-Clauberg assays relative to CDB-2914.

The test system of assay [2] is rabbit progesterone receptor (rbPR) and glucocorticoid receptor (rbGR). As to the kind of experiment: Receptor-binding assays, ratio of relative binding affinities rbPR/rbGR. To be noted: RBA = EC50 of standard/EC50 of test compound x 100. As to the method: Certain antiprogestins were tested in receptor-binding assays for their ability to bind rabbit progesterone receptor (rbPR) and glucocorticoid receptor (rbGR). Briefly, cytosol containing PR or GR were prepared in TEGMD buffer (10 mM Tris, pH 7.2, 1.5 mM EDTA, 0.2 mM sodium molybdate, 10% glycerol, 1 mM DTT) from uterus or thymus, respectively, of estradiol-primed immature rabbits. For PR binding, the cytosol was incubated with 6 nM 1,2-[^3H]progesterone (50.0 Ci/mmole) and competitors were added at concentrations from 2 to 100 nM. For binding to GR, the cytosol was incubated with 6 nM 6,7-[^3H]-dexamethasone (40 Ci/mmol) and test compounds were added at concentrations from 20 to 100 nM. After overnight incubation at 4° C., bound and unbound [^3H] steroids were separated by addition of dextran-coated charcoal and centrifugation at 2100×g for 15 min at 4
C. Supernatants containing the [3H]-steroid receptor complexes were decanted into vials containing 4 ml Optifluor (Packard Instrument Co.), vortexed, equilibrated in a liquid scintillation counter for 30 minutes and then counted for 2 minutes. The ECso (Effective Concentration) for each standard curve and each of the compound curves was determined by entering the counting data into a four parameter sigmoidal computer program (RiaSmart® Immunoassay Data Reduction Program, Packard Instrument Co., Meriden, Conn.). Relative binding affinity (RBA) for each compound was calculated using the following equation: EC50 of standard/EC50 of test compound×100. The standards for the PR and GR assays were unlabeled progesterone and dexamethasone, respectively. The results of these experiments are summarized in Table 1, as a ratio of the relative binding affinities of each compound for the rbPR and rbGR receptors (rbPR/rbGR).

Consider `CC(=O)O[C@]1(C(C)=O)CC[C@H]2[C@@H]3CCC4=CC(=O)CCC4=C3[C@@H](c3ccc(N(C)C)cc3)C[C@@]21C` [CDB-2914, 17α-acetoxy-11β-(4-N,N-dimethylaminophenyl)-19-norpregna-4,9-dien-3,20-dione, reference compound], for which the “anti-glucocorticoid receptor activity / glucocorticoid receptor binding (in words)” value in assay [1] was “moderately active in glucocorticoid receptor binding”. The “rabbit Biol. Act.” value with rabbit uterus is given as 1.00. In assay [2], the “rbPR/rbGR (ratio of the relative binding affinities for rbPR and rbGR)” value stood at 1.07.

Source of the values: US20110053900A1, “PROGESTERONE ANTAGONISTS SUCH AS CDB-4124 IN THE TREATMENT OF BREAST CANCER” (Repros Therapeutics inc, priority 2008, published 2011).
